Details: Hot wire method

FC(F)(F)/C=C/Cl [(E)-1-chloro-3,3,3-trifluoroprop-1-ene]
Details	thermal conductivity [W/m/K]
322.01 K, 259 kPa, Gas	0.01279
322.01 K, 462 kPa, Liquid	0.07568
322.04 K, 43829 kPa, Liquid	0.09557
322.05 K, 99 kPa, Gas	0.01242
322.05 K, 194 kPa, Gas	0.01256
322.06 K, 34292 kPa, Liquid	0.09256
322.06 K, 43826 kPa, Liquid	0.09519
322.07 K, 189 kPa, Gas	0.01239
322.08 K, 34300 kPa, Liquid	0.09194
322.09 K, 98 kPa, Gas	0.01259
322.09 K, 25078 kPa, Liquid	0.08798
322.22 K, 122 kPa, Gas	0.0128
322.23 K, 142 kPa, Gas	0.01241
322.25 K, 164 kPa, Gas	0.01289
322.27 K, 260 kPa, Gas	0.0128
322.29 K, 144 kPa, Gas	0.01276
322.3 K, 16963 kPa, Liquid	0.08446
322.32 K, 188 kPa, Gas	0.01244
322.33 K, 99 kPa, Gas	0.01222
322.34 K, 258 kPa, Gas	0.0126
322.36 K, 9801 kPa, Liquid	0.08109
322.36 K, 66579 kPa, Liquid	0.1031
322.38 K, 66598 kPa, Liquid	0.1031
322.39 K, 193 kPa, Gas	0.01261
322.4 K, 5186 kPa, Liquid	0.07821
322.4 K, 56115 kPa, Liquid	0.09929
322.44 K, 98 kPa, Gas	0.01281
322.44 K, 16945 kPa, Liquid	0.08465
322.46 K, 43829 kPa, Liquid	0.09512
322.47 K, 43824 kPa, Liquid	0.09516
322.49 K, 450 kPa, Liquid	0.07575
322.49 K, 9815 kPa, Liquid	0.081
322.49 K, 34282 kPa, Liquid	0.09204
322.5 K, 66578 kPa, Liquid	0.1033
322.51 K, 34308 kPa, Liquid	0.0922
322.51 K, 66603 kPa, Liquid	0.1032
322.52 K, 141 kPa, Gas	0.01234
322.54 K, 260 kPa, Gas	0.01283
322.54 K, 5172 kPa, Liquid	0.07803
322.54 K, 25075 kPa, Liquid	0.08816
322.55 K, 123 kPa, Gas	0.01279
322.56 K, 164 kPa, Gas	0.0126
322.61 K, 99 kPa, Gas	0.01223
322.63 K, 187 kPa, Gas	0.01233
322.63 K, 440 kPa, Liquid	0.0752
322.63 K, 43821 kPa, Liquid	0.09452
322.64 K, 143 kPa, Gas	0.0128
322.64 K, 34270 kPa, Liquid	0.09178
322.66 K, 34302 kPa, Liquid	0.09186
322.71 K, 25078 kPa, Liquid	0.08769
322.72 K, 259 kPa, Gas	0.01251
322.78 K, 192 kPa, Gas	0.01262
322.81 K, 141 kPa, Gas	0.01231
322.82 K, 99 kPa, Gas	0.01285
322.82 K, 260 kPa, Gas	0.01282
322.83 K, 123 kPa, Gas	0.01245
322.89 K, 123 kPa, Gas	0.01281
322.89 K, 164 kPa, Gas	0.01245
322.9 K, 164 kPa, Gas	0.01257
322.9 K, 16956 kPa, Liquid	0.08425
322.91 K, 99 kPa, Gas	0.0122
322.91 K, 66592 kPa, Liquid	0.1026
322.92 K, 186 kPa, Gas	0.0124
322.92 K, 66618 kPa, Liquid	0.1032
322.96 K, 56154 kPa, Liquid	0.09964
322.97 K, 9802 kPa, Liquid	0.08079
323.03 K, 143 kPa, Gas	0.01271
323.05 K, 5181 kPa, Liquid	0.07837
323.06 K, 43815 kPa, Liquid	0.09535
323.07 K, 16973 kPa, Liquid	0.08427
323.07 K, 43817 kPa, Liquid	0.09505
323.08 K, 66614 kPa, Liquid	0.1032
323.1 K, 259 kPa, Gas	0.01262
